Measurements from patent US7868028B2 (priority 2002, dated 2011).
“And” between values parts separate entries of the source, which are not always exact repeats. Equal values may be shown once. Read-outs that look alike come from different tables or passages of the source.

How the values were obtained:
[1] = target: voltage-gated sodium channel; details: cited from earlier work
[2] = tested on: voltage-gated sodium channel (site 1, [3H]Saxitoxin binding); parameters: species or system rat; for % inhibition: test concentration or dose not given here
Male Sprague-Dawley rats = details: rat, in vivo; note: test concentration or dose not given here

NC1=N[C@H](O)[C@H]2[C@H]3O[C@]4(O)O[C@@H]([C@@H](O)[C@@]2(N1)[C@@H]4O)[C@]3(O)CO [TTX, tetrodotoxin]
Kd [1]: 0.003 to 0.005 µM

Br.N=c1n(Cc2ccc(F)cc2)c2ccccc2n1CC(O)COc1ccccc1 (racemic) [Compound 70]
% inhibition [2]: 26%
IC50 [2]: 97 µM
Average % MPE 5 minutes (Male Sprague-Dawley rats): 83 % MPE
Average % MPE Day 4 (Male Sprague-Dawley rats): 4 % MPE

Cc1ccc(Cn2c(=N)n(CC(O)COc3ccccc3)c3ccccc32)cc1.Cl (racemic) [Compound 4]
% inhibition [2]: 47%
IC50 [2]: 21 µM
Average % MPE 5 minutes (Male Sprague-Dawley rats): 100 % MPE
Average % MPE Day 4 (Male Sprague-Dawley rats): −2 % MPE

Br.COc1ccc(Cn2c(=N)n(CC(O)COc3ccccc3)c3ccccc32)cc1 (racemic) [Compound 78]
% inhibition [2]: 17%
IC50 [2]: 67 µM
Average % MPE 5 minutes (Male Sprague-Dawley rats): 11 % MPE
Average % MPE Day 4 (Male Sprague-Dawley rats): −4 % MPE

Br.N=c1n(Cc2ccccc2)c2ccccc2n1CC(O)COc1ccccc1 (stereo not shown) [Compound 3, 1-benzyl-2-imino-3-(2-hydroxy-3-phenoxypropyl)benzimidazole hydrobromide]
% inhibition [2]: 52%
IC50 [2]: 21 µM
Average % MPE 5 minutes (Male Sprague-Dawley rats; hydrobromide): 76 % MPE and 100 % MPE

Cl.N=c1n(CCN2CCCCC2)c2ccccc2n1CC(O)COc1ccccc1 (racemic) [Compound 22]
% inhibition [2]: 14%
IC50 [2]: 210 µM
Average % MPE 5 minutes (Male Sprague-Dawley rats): 100 % MPE
